This note sets out measurements from patent publication US20200384072A1, “THERAPY OF IONIZING RADIATION-INDUCED DISORDERS” (SCK-CEN, priority 2019, published 2020).

Assay [1] relates to TICAE cells. In words: Intracellular ROS, CM-H2DCFDA IncuCyte live cell imaging, TICAE cells. The assay is classed as cell-based, human. As to conditions: 100 μM TAT-Gap19, 0.1 and 5 Gy, 45 min p.i. As to the method: In order to further assess intracellular ROS production, IncuCyte live cell imaging was used to have fast imaging in large number of replicates over multiple time points. TICAE and TIME cells were seeded in 96-well plate in 16 replicates at a density of 10000 cells/well. Three days later, cells reached 100% confluence. At 30 minutes before irradiation, a fresh MesoEndo Cell Growth Medium without phenol red (Sigma-Aldrich Co. LCC, Diegem, Belgium) supplemented with 10 μmol/L of the CM-H2DCFDA dye (Sigma-Aldrich Co. LCC, Diegem, Belgium) was added to the cells, with or without 100 μM TAT-Gap19 (Genosphere Biotechnologies, Paris, France). Fluorescence signals were measured at 45 min, 2 h and 3 h after irradiation (CM-H2DCFDA dye became saturated due to photoactivaton, and leaked outside the cells after this time) using the IncuCyte ZOOM® system (Essen BioScience, Ann Arbor, Mich., USA), 10× objective and FITC filter. […] Images were analysed making use of the software package provided by the manufacturer; we used a training set of images from different doses to define the image processing procedure. The so called Top-Hat background subtraction method was applied by measuring the radius of the fluorescence object (30 μm), and adjust a threshold of 1.5 (above the local background fluorescent intensity level), as described in IncuCyte™ Background Fluorescence Technical Note. […]

Assay [2] has as its target T1, Cx43 hemichannels (Homo sapiens, UniProt P17302).
T1 construct: endogenous in cells; host or cells: TICAE and TIME cells (human endothelial cell lines)
In words: Extracellular ATP release after irradiation, TICAE cells. Type of assay: cell-based. As to the method:
Hemichannels are an ATP release pathway and we therefore determined extracellular ATP after irradiation. To that purpose, TICAE and TIME cells were seeded in a 96-well plate at a density of 1×10^5 cells/well and 0.3×10^5 cells/well, respectively, in six to eight biological replicates. Three days later, cells reached 100% confluence. At 30 minutes before irradiation, cells were refreshed with 100 μl medium alone or with medium supplemented with 100 μM TAT-Gap19 (Genosphere Biotechnologies, Paris, France) to block the Cx43 hemichannels. For fractionated irradiation, cells were refreshed with 150 μl medium/well. At different time points after irradiation (1, 6 and 72 h), 1:5 ATP assay mix dissolved in ATP mix dilution buffer (Sigma-Aldrich Co. LCC, Diegem, Belgium) was added to each well. Extracellular ATP release was assessed by measuring the luminescence signal received after oxidation of luciferin and ATP to oxyluciferin and AMP using the CLARIOstar® microplate reader (BMG Labtech, Temse, Belgium). Experiments were corrected for baseline ATP signal in medium in the absence or presence of TAT-Gap19.

The subject of assay [3] is TICAE cells. The experiment in a line: DNA damage, gamma H2AX and TP53BP1 foci, TICAE cells. Type of assay: cell-based, human. The note with it: 100 μM TAT-Gap19, 0.1 and 5 Gy, 1 h p.i. The procedure:
To detect DNA double strand breaks after IR, TICAE and TIME cells were seeded in Nunc™ Lab-Tek™ Chamber Slide (Thermo Fisher Scientific, Asse, Belgium) in 8 replicates, at seeding density of 50 000 cells/well. Two days later, cells reached 100% confluence. At 30 min before IR, a fresh medium was added to the cells with or without 100 μM TAT-Gap19. At 1 h post irradiation, cells were fixed with 2% PFA (Sigma-Aldrich Co. LCC, Diegem, Belgium) and permeabilized with 0.25% Triton X-100 (Sigma-Aldrich Co. LCC, Diegem, Belgium) in PBS. Cells were blocked for 1 h in 1% normal goat serum (Thermo Fisher Scientific, Asse, Belgium) in Tris-NaCl (Perkin Elmer, Brussels, Belgium). Thereafter, staining with 1/300 primary anti-gamma H2AX antibody (Merck-Millipore #05-636) and 1/1000 anti-TP53BP1 antibody (Novus Biologicals #NB100-304) was performed for 1 h at 37° C. After washing 3 times with PBS, secondary Alexa Fluor 488 and 568 antibodies (Life Technologies, Merelbeke, Belgium) were applied for 1 h at 37° C. Finally, the slides were mounted using ProLong Diamond Antifade Mountant with DAPI (Life Technologies, Merelbeke, Belgium), and cells were visualized with an Eclipse Ti automated inverted wide-field epifluorescence microscope (Nikon, Brussels, Belgium) equipped with a 20×Plan Fluor objective (NA 0.6) and an Andor Ixon EMCCD camera, controlled by the MS Elements software. […]

In assay [4] the test system is RBE4 cells. The experiment in a line: γ-H2AX counts after local 3×3 mm X-ray irradiation (irradiated and bystander zones), RBE4 cells. The note with it: 1 Gy, 3 h post-irradiation, Cbx 50 μM, Gap26 161 μM, TAT-Gap19 200 μM, Xestospongin C 5 μM. The assay is classed as cell-based, rat. The procedure:
A defined area of the cell culture dishes were exposed to X-rays (1Gy or 20 Gy) by using a small animal radiation research platform (SARRP, Xstrahl, 220 kV, 13 mA), making use of a 3×3 mm collimator. Whole dish irradiation was done using a 10×10 cm broad-beam collimator, while localized Irradiation was performed with a 3×3 mm collimator. A Gafchromic RTQA2 film, with a sensitivity of 0.02 Gy, was placed underneath the cell dishes in order to delineate the irradiated zone.
Cells were fixed for 25 min with 4% formaldehyde (VWR) and blocked for 30 min with blocking buffer (5% normal goat serum, 1% bovine serum albumin (BSA), 0.2% Triton X-100 in PBS D+). Overnight incubation with primary antibody (1/500 anti-γ-H2AX in dilution buffer, 1/10 blocking buffer in PBS D+) was followed by a 1 h incubation with 1/400 XX-biotin-goat-anti-mouse antibody in dilution buffer, followed by a 1 h incubation with 1/400 streptavidin-alexa488 in PBS D+. Nuclei were stained with 1 μg/mL DAPI in PBS D+ for 10 min and cells were kept in PBS D+ supplemented with NaN3 at 4° C. All steps except the overnight incubation which was carried out at 4° C., were carried out at room temperature and cell cultures were rinsed thoroughly with PBS D+ between all incubation steps. Imaging was performed with an automated BD Pathway 435 imaging system (10× objective, 10×10 montage resulting in an overall image size of 8.5×6.5 mm). We then quantified the number of γ-H2AX-foci positive nuclei in the directly irradiated and bystander areas and expressed the count as a percentage relative to the number of nuclei and subtracted the percentage of background γ-H2AX signal in non-irradiated paired control cultures for each experiment. For counting γ-H2AX foci, images were thresholded to remove background pixel noise below the foci level. Where applicable, results were normalized against vehicle (bar charts with a 100% vehicle bar without statistical variability or a horizontal line).

T1 sequence (P17302 whole entry): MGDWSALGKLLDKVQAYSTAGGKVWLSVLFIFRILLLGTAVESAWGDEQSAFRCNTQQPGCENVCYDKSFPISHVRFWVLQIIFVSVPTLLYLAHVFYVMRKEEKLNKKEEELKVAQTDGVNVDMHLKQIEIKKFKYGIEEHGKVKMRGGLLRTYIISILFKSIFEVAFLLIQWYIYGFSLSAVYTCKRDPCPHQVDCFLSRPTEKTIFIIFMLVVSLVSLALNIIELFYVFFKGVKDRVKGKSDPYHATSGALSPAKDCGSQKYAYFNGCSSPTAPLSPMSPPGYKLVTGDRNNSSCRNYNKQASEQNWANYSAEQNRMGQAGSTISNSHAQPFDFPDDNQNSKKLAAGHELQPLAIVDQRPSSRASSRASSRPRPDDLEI

On to “TAT-Gap19: connexin mimetic peptide, amino-acids 128-136 of the CL of Cx43 (SEQ ID NO: 2), Gap19 linked to TAT sequence; Cx43 hemichannel inhibitor (YGRKKRRQRRRKQIEIKKFK)”, for which, in assay [1], the “ROS production (IncuCyte)” value was “significantly reduced ROS production at both doses”. Moreover, the “radiation-induced ATP release” value in assay [2] (100 μM TAT-Gap19, fractionated irradiation 0.1 and 5 Gy, 72 h p.i.) was “significantly inhibited the 5 Gy responses only”; in assay [2] (100 μM TAT-Gap19, single 0.1 and 5 Gy, 1 h p.i.) it was “no inhibition was observed”; in assay [2] (100 μM TAT-Gap19, single 5 Gy, all cases except 1 h p.i. (6 h, 72 h)), “significantly reduced the ATP release”. Moreover, the “gamma H2AX, TP53BP1 and colocalized foci (radiation-induced DNA damage)” value in assay [3] is listed as “not affected”. Besides, the “γ-H2AX counts in the bystander zone (normalized to vehicle)” value in assay [4] is “significantly inhibited”. The “γ-H2AX counts in the irradiated zone (normalized to vehicle)” value in assay [4] is recorded as “significantly inhibited”.
